How the values were obtained:
Type in all cases: cell-based, human
COL2A1 promoter = experiment: COL2A1 promoter/intron deletion constructs, transient transfection in C-28/I2 cells; conditions: all five constructs -577, -530, -403, -131, -83/+127 bp, 18 h
Experimental: The COL2A1 sequence spanning −577 to +3428 bp (Goldring M B, et al, J Cell Biochem 1994;54:85-99, 39) was cloned into the pGL2-basic (pGL2B) luciferase reporter gene vector (Promega,) and named pGL2-COL2/4.0. Deletion constructs containing −577/+125 bp, −131/+125 bp, −87/+125 bp were prepared by enzyme digestion of pGL2-COL2/4.0 using PstI, ApaI, and PuuII, followed by ligation. For the deletion constructs −45/+125 bp, −83/+7 bp, and −45/+7 bp, PCR products were generated as described (Osaki et al.) and cloned into the pGL2-Basic luciferase vector. These reporter constructs were used as templates to generate point mutations or internal deletions by PCR mutagenesis employing the oligonucleotides listed in FIG. 16 and the QuikChange™ Site-Directed Mutagenesis Kit (Stratagene, La Jolla, Calif.). DNA fragments containing point mutations were then cloned into the pGL2B vector and confirmed by DNA sequencing using a G2 primer on pGL2 DNA. Deletions were also made in the −577/+127 bp COL2A1 promoter construct using the ExSite™ PCR-Based Site-Directed Mutagenesis Kit (Stratagene).
Transient transfection experiments were carried out in C-28/I2 cells using LipofectAMINE PLUS™ Reagent (Life Technologies). Cells were seeded in 6-well tissue culture plates at 3.5×10^5 cells/well in DMEM/F12 containing 10% FCS 24 h prior to transfection. For each well, 1 μg of COL2A1-luciferase construct, 6 μl of PLUS reagent and 92 μl of serum-free DMEM/F12 were mixed and incubated for 15 min at room temperature. LipofectAMINE+ reagent (4 μl) in 100 μl of serum-free medium was then added to each reaction mixture and incubation was continued for an additional 30 min at room temperature. Finally, the transfection mixture was combined with 800 μl of serum-free medium and the lipid-nucleic acid complex was transferred to the washed cell monolayer in each well. After incubation for 4 h at 37° C., the transfection mix was diluted with an equal volume of DMEM/F12 containing 2% Nutridoma-SP, and incubation continued for 18 h in the absence or presence of IL-1β. […] Cell lysates were prepared by extraction with 200 μl of Reporter Lysis Buffer (Promega) and the protein content was determined using the Coomassie Plus Protein Assay Reagent (PIERCE). Luciferase activities were determined by chemiluminescence assay using the Autolumat LB953 luminometer (EG&G Berthold, Oak Ridge, Tenn.), normalized to the amount of protein. Each data point was calculated as the mean±standard deviation for three independently transfected cultures from one representative of at least three experiments. […]
To localize the responses to IL-1β and ESE-1 in the COL2A1 promoter, we made several 5′-deletions of the −577/+127 bp promoter construct, which we had previously determined to be responsive to IL-1β.

ESE-1 [1] = experiment: ESE-1 mRNA Northern blot in LB-12 osteoblasts; conditions: LB-12 cells; 1, 2, 6, 24 hours
Experimental: (§1) U-87 Mg and U-138 Mg (human glioma), THP-1 (human monocytic), RAW 264.7 (murine monocytic), LB-12 (human osteoblast-like large T antigen transformed bone marrow stromal cells), and human chondrocytes were grown and treated with cytokines as described (Apperley, J., et al. 1990. J Bone Mineral Res. 5:S93; Goldring, M. B., et al. 1994. J Clin Invest 94:2307-16; Goldring, S. R., et al. 1983. J Bone Joint Surg 65:575-84; Libermann, T. A., et al. 1987. Embo J. 6:1627-1632).
Total RNA was harvested using QIAshreder (Qiagen) and RNeasy® Mini Kit (Quiagen) or Trizol (Gibco BRL). Poly A^+ RNA was prepared with MicroPoly(A) Pure (Ambion). Northern blots (5 μg total RNA) were hybridized using a full length ESE-1 cDNA probe as described (Oettgen, P., et al. et al. 1997, Mol Cell Biol 17:4419-33.).
Osteoblasts, the bone cells responsible for bone formation, represent another connective tissue cell target of inflammatory cytokines in joint disorders (Bogoch, E. R., and E. Moran. 1998, Can J Surg 41:264-71). […] LB-12 cells were incubated for different times in the absence or presence of IL-1β. […] Since the rapid, but transient induction of ESE-1 resembles that of immediate early genes, we tested the effect of the protein synthesis inhibitor cycloheximide which superinduces expression of certain genes due to mRNA stabilization. Cycloheximide alone had no effect, but superinduced IL-1β-mediated ESE-1 mRNA expression (FIG. 11d).

ESE-1 [2] = experiment: ESE-1 mRNA RT-PCR in immortalized chondrocytes T/C28a2, C28/I2, C20/A4; conditions: T/C28a2, C28/I2 and C20/A4 chondrocytes; 24 hours
Experimental: as §1
cDNAs were generated from 1 μg of total RNA using Ready-To-Go™ You-prime First-Strand Beads (Amersham Pharmacia Biotech Inc). RT-PCR amplifications of 0.1 μg cDNA were carried out using a MJResearch thermal cycler PTC-100 as follows: 5 min at 94° C., 20-37 cycles of 30 sec at 94° C., 30 sec at 56° C., and 30 sec at 72° C., followed by 5 min at 72° C. (Oettgen, P., et al. 2000, J Biol Chem 275:1216-25). The sequences of the human ESE-1 primers and the primers for human GAPDH were as described (Oettgen, P., et al. 1999, J Biol Chem 274:29439-52).
To test the hypothesis that ESE-1 is a mediator of cytokine responses in non-epithelial cell types, we analyzed ESE-1 expression in response to a variety of cytokines in several connective tissue cell types. Immortalized human chondrocytes, T/C28a2, C28/I2, and C20/A4 (Goldring, M. B., et al. 1994, J Clin Invest 94:2307-16), were stimulated with IL-1β, TNF-α and IFN-γ for 24 hours. […] The kinetics of ESE-1 induction was explored in a time course experiment with T/ C28a2 chondrocytes.

With “IL-1β: interleukin-1 beta, proinflammatory cytokine” the “inhibition of COL2A1 promoter constructs” value (COL2A1 promoter) was “at least 50%”, the “ESE-1 mRNA expression, agent alone” value (ESE-1 [1]) was “rapidly induced” and the ESE-1 expression (ESE-1 [2]) was “induced ESE-1 expression in all chondrocyte cell lines”.

From patent US6869929B2, “Use of transcription factors for treating inflammation and other diseases” (Beth Israel Deaconess Medical Center, priority 2000, dated 2005)
